Measured values published in US20090176776A1, “SMALL MOLECULE INHIBITORS OF HIV-1 CAPSID ASSEMBLY” (UNIVERSITY OF ALABAMA AT BIRMINGHAM, priority 2005, published 2009).

Assays:
[1] = target: T1, recombinant HIV-1 capsid protein (CA) (Human immunodeficiency virus type 1 group M subtype B, UniProt P12493); experiment: Turbidity based HIV-1 capsid assembly assay; assay type: biochemical; conditions: initial assembly rate by turbidity; twofold dilutions over a 128 fold range; 30 μM CA, 2.25 M NaCl
T1 construct: recombinant HIV-1 capsid protein (CA); made in house
Description: The kinetics can be followed by monitoring the increase of turbidity using a spectrophotometer. The IC50 of the chemical compound tested is determined by titration. As the C-domain inhibits capsid assembly by forming CA-C-domain heterodimers, the effect of added C-terminal domain on the rate of assembly was evaluated by plotting the rate of assembly versus C-terminal domain concentration.
Soluble HIV-1 capsid protein can be triggered to assemble into tubes similar in diameter and morphology to intact cores by dilution into high iconic strength buffer. The kinetics of assembly can be followed by monitoring the increase in turbidity using a spectrophotometer (Lanham et al., J. Virol., 76:6900, 2002). This assembly assay was adapted to a 96-well, microplate format to allow for medium-throughput screening of compounds by measuring turbidity in a Nepeloskan Ascent plate reader (Thermo Electron Corp., UK). A DIVERSet™ library of 10,000 low molecular weight, “drug-like” compounds was purchased from ChemBridge Corp. (San Diego, Calif.). This library was selected for its potential bioavailability and application based on a pharmacophore diversity analysis. The average molecular weight of the compounds is 347 g/mol, the range being 200-596 g/mol. The compounds came plated in 96-well plates and solubilized in DMSO at 5 mgs/mL.
Turbidity based assay. A 1.5 μL aliquot of compound was diluted 90-fold into 50 mM Na2HPO4, […] buffer, pH 8 in an optically clear 96-well plate. The plate containing compounds and salt was read to check for compound solubility and to serve as a background reading for the assay. To initiate the assembly reaction, 15 μL of […] stock (in 50 mM Na2HPO4 pH 8) of recombinant HIV-1 capsid protein (CA), purified as described (Lanman et al., J. Virol., 76:6900, 2002), was added to each well of the 96-well plate using a multi-channel pipettor. […] Furthermore, the halftime of the assembly reaction is ˜5 minutes so reading the plate in thirds prevented loss of initial rate data. Therefore, CA was added to the first 4 lanes, the reactions followed for ten minutes, reading was paused, CA was then added to the next four lanes and the process repeated. Instrument settings are as follows: PMT gain of 500 V, lamp at 10V, and integration time of 60 ms. The data were exported to a custom designed Excel spreadsheet that allowed simultaneous plotting of kinetic curves.
Recombinant CA protein was purified as previously described and stored at 300 μM at −80° C. A turbidity based assembly assay, described above, was adapted to a 96-well, microplate format to allow for medium-throughput screening of compounds in a Nepheloskan Ascent plate reader (Thermo Electron Corp., UK). A 1.5 μL aliquot of compound or DMSO was diluted 90-fold into 50 mM Na2HPO4, 2.25 M NaCl buffer, pH 8 in an optically clear 96-well plate. To initiate the assembly reaction, 15 μL of the 300 μM stock (in 50 mM Na2HPO4 pH 8) of recombinant HIV-1 capsid protein (CA), was added to each well of the 96-well plate using a multi-channel pipettor.

[2] = system: HIV-1NL43; experiment: Anti-HIV assay (single round), p24 production by pNL43-transfected cells (ELISA); assay type: cell-based; conditions: p24 in supernatant of NL43-transfected 293T cells, 72 hours; read-out: p24 50%
Description: Anti-HIV Assays (Single Round). The inhibitory effect of the compounds on virus production and infectivity were determined by measuring the level of p24 produced in the presence of various concentrations of compounds from HEK-293 cells transiently transfected with pNL43 and by titering the virus on TZM-b1 cells. Briefly, 2.5×10^5 HEK-293 cells/ml were transfected with pNL43 using FuGene 6. Four hours post transfection the cells were plated in 96-well plates containing 100 μl of various concentrations of compounds (0-75 μM or 0-300 μM for mock transfected cells) in triplicate. At 72-hours post transfection virus supernatant was collected and stored at −80° C. until analysis. The level of p24 produced at each compound concentration was determined relative to the level produced in the presence of the DMSO only controls using HIV-1 p24 enzyme-linked immunosorbent assay (ELISA) (Beckman-Coulter). To determine the infectivity of the virus produced TZM-b1 cells were plated at 1×10^5 cells/ml in 100 μL in 96-well plates overnight. The next day, the media was replaced with 75 μL DMEM supplemented with 1% FBS, 1× PSG and 40 μg/ml DEAE Dextran and 25 μL of viral supernatant from the HEK-293 cells was added to each well. Three hours later 100 μL of DMEM with 7% FBS was added to each well. Two days after infection the cells were lysed and the level of luciferase expression was determined using the Bright-Glo assay.
FIGS. 12-18 show the anti-HIV assays for the examples of chemical compounds used according to the invention. After in-vitro assay, the chemical compounds in FIGS. 12-18 were selected for screening for cell viability and toxicity. Jurkat cells assay was used as screening assay. In Jurkat cells assay, JLTRG-R5 cells were used as Indicator cells and MOLT4 cells as Producer cells of NL43 and BAL virus. 96 chemical compounds were plated at seven different concentration from 75 μM to 0 μM at three-fold serial dilutions in 384 well plate. After five days, GFP expression was read. Cell viability was monitored with Alamar Blue assay. Luc M7 assay was designed to measure inhibitory activity of the chemical compounds to viral replication. After infection of cells with YU2 virus, plate cells in 96-well plate in the presence of six concentration of compounds in DMSO. At day 6, the number of cells in wells were read with Cell Titer Glo kit or by counting the number of cells infected with Bright Glo kit. 293T cells assay was designed to determine the toxicity. 293T cells were transfected with NL43. After four hours, transfected cells were plated in 96-well plate in DMSO and 2 μM Indinavir. 72 hours later, viral supernatant was collected and plated on JC53BL. Luciferase expression was measure after two days and p24 analysis was conducted with 1:1000 and 1:2000 dilutions.

## Cc1ncc(C[n+]2csc(CCOC(=O)C3C4CC5CC(C4)CC3C5)c2C)c(N)n1.Cl.[Cl-] (centres unmarked) [Compound 26]
[1]
  IC50: 28 µM
[2]
  IC50: 60.2 µM
